The record followed here is patent US3987157A, “Technetium 99-M labeled radio-diagnostic agents employing stannous tartrate and method of preparation” (Union Carbide Corporation, priority 1974, dated 1976).

Data set [1] can be described thus: Stability of various stannous compounds to air oxidation, one hour (Table XII). The format is physicochemical. Particulars: for Stannous Concentration Before Aeration: 98 ml saline containing 2 ml 1N HCl; for Stannous Concentration After Aeration / % Not Oxidized tin: air bubbled for one hour; for % Not Oxidized tin: 60 min. How it is done: Six salts of stannous compounds were each dissolved in 98 ml of saline containing 2 ml 1N HCl. The solutions were analyzed in order to measure the stannous ion concentration and then were subjected to oxidation conditions by bubbling air through the solutions for one hour. The solutions were analyzed again. […]

A short description of data set [2]: Stability of stannous compounds to air oxidation, 2.5 hours (Table XI). The format is physicochemical. Particulars: 40 ml saline and 1 ml 1N HCl. How it is done:
Four salts of stannous compounds were each dissolved in a solution of 40 ml of saline and 1 ml of 1N HCl which was purged with nitrogen. The stannous concentration was measured and then the solution was subjected to oxidation conditions by bubbling air through the solution for 2.5 hours. The stannous concentration was again measured.

Turning to `O=C([O-])[C@H](O)[C@@H](O)C(=O)[O-].[Sn+2]` [Stannous Tartrate, stannous tartrate], in data set [1], the “Stannous Concentration Before Aeration” value amounted to 0.247 mg/mL, the “Stannous Concentration After Aeration” value worked out at 0.213 mg/mL and the “% Not Oxidized tin” value was determined as 86.2%. The “Stability to air oxidation (in words)” value in data set [1] (one hour air) is “more stable than stannous chloride with tartrate or citrate ion present”. Moreover, the “Stannous Concentration Before Aeration” value in data set [2] amounted to 18.0 mg/mL.
Consider `[Cl][Sn][Cl]` [Stannous Chloride, stannous chloride, reference compound], for which, in data set [1], the “Stannous Concentration Before Aeration” value worked out at 0.138 mg/mL, the “Stannous Concentration After Aeration” value amounted to 0.085 mg/mL and the “% Not Oxidized tin” value turned out to be 61.6%. In data set [2], the “Stannous Concentration Before Aeration” value is 9.3 mg/mL.
